This test is described as follows: In vivo acute food intake model (BioDAQ) in C57BL/6J male mice. The note with it: single subcutaneous dose 1 mg/kg, cumulative food intake. As to the method:
The MC4R system is central to appetite regulation and agonists are known inhibit food intake. In order to screen compounds in a relevant in vivo model, efficacy was assessed by determining the effect of the compound on reducing food intake acutely in mice.
All animal protocols were approved by an Institutional Animal Care and Use Committee and Ethical Review Committee of Novo Nordisk. Animals were housed according to Novo Nordisk rodent housing standards, and were given ad libitum access to food and water under controlled lighting (12 h:12 h light/dark cycle; lights off 11:00-23:00), temperature (23±2° C.) and relative humidity (50±20%) conditions. For each acute food intake study C57BL/6J male mice (25-30 grams body weight) were acclimated for two weeks to the appropriate light cycle and to single-housing (one mouse per cage) in cages linked to a BioDAQ automated food intake system (Research Diets Inc., New Brunswick, N.J. USA). The animals were also acclimated to new food (Research Diets 12450B, 10% kcal fat) during this time.
The BioDAQ is a computer automated scientific instrument for Biological Data Acquisition of food intake in rodents and measures food intake from each cage every 15 minutes. A total of 32 animals can be accommodated in the system per study, therefore, animals were randomized into 4 groups of n=8 for each study. […] Animals were fasted ˜4 hr prior to dosing. Vehicle (10 mM phosphate; 140 mM sodium chloride) or compound was dosed at a volume of 10 ml per kg subcutaneously approximately 20 minutes prior to the start of the dark cycle (compound chem no. and dosages are indicated in table 2 below). After dosing, food intake was recorded for approximately 24 hours.
The inhibitory effect of compounds on food intake was generally well-correlated with in vitro binding affinity on the human MC4 receptor and with plasma stability of the compound. Most studies were conducted as dose response studies with vehicle and the compound at 3 doses (0.3, 1 and 3 mg/kg). Some studies were done for the purpose of dose-range finding, while others were done to comparatively assess the effect of 3 compounds at the same dose. Maximal effects on food intake occurred within the first 1-5 hours post-dose. The comparative effect of compounds across studies on food intake was assessed by normalizing measurements as % effect on cumulative food intake after a single subcutaneous dose, relative to vehicle. Results are reported in Table 2 as % effect on food intake at 3 hours post dose.

SMILES strings stand for the structures. Positions of bridges follow the written chain, without caps; N, C: chain ends. Non-standard residues stand in square brackets, D forms with d. Residues, ends and D or L forms follow the SMILES beside them. Thz = O=C(O)[C@@H]1CSCN1

For the compound `C[C@@H]1NC(=O)[C@H](CCCCN)NC(=O)[C@@H]2CSSC[C@H](NC(=O)[C@H](Cc3c[nH]c4ccccc34)NC(=O)[C@H](C)NC(=O)[C@@H](CCCCN)NC1=O)C(=O)N1CSC[C@H]1C(=O)N[C@@H](Cc1c[nH]cn1)C(=O)N[C@H](Cc1ccccc1)C(=O)N[C@@H](Cc1c[nH]cn1)C(=O)N[C@@H](Cc1c[nH]c3ccccc13)C(=O)N2` [Chem. 114, c[c[Cys-THAZ-His-D-Phe-His-Trp- Cys]-Lys-Ala-D-Lys-Ala-Trp]] (cyclo(AWC[Thz]H[dF]HWCKA[dK]); disulfide 3-9), the “% Effect on food intake at 3 hours post dose, relative to vehicle” value was −64 ± 6%.

The values above are taken from patent publication US20200223889A1, “Bicyclic Compounds Capable of Binding to Melanocortin 4 Receptor” (Novo Nordisk A/S, priority 2017, published 2020).
